What was measured:
[1] = system: ketamine-induced coma in mice; test: Ketamine-induced coma in mice, duration of loss of righting reflex; type: in vivo, Kunming mice; conditions: for Time of Sleep (The duration of reflex action, min): ketamine 120 mg/kg i.p. induced coma
Method: • 1.1 Experimental animal and grouped 150 Kunming mice, male, weight (25.3±1.9) g, provided by the special committee of Sichuan experimental animal farms. (License: SCXK (Chuan) 2008-14). Animal experiments facilities continue to maintain barriers environmental standards. Control of key environmental indicators: the temperature of 20.0-25.0° C., relative humidity of 40-70%. 10-20 air changes/hour, lighting:dark=14 h:10 h. Animals were housed in standard boxes, each box 5.
Mice after three consecutive supine standing for 5 s can not be restored righting reflex recovery after three consecutive sit-stand for the righting reflex. • 1.4 Statistical analysis of data with x±sd was expressed using statistical software SPSS 12.0 for data analysis. The groups were compared using ANOVA, test level: A=0 05. 2. Results

[2] = system: alcoholic coma mouse model; test: Alcohol-induced coma in mice, sleep time (duration of loss of righting reflex); type: in vivo; conditions: for wake-promoting effect on alcoholism-induced coma (in words): doses of Table 8
Method: • 1. Drugs and reagents: L-Oxiracetam, D-Oxiracetam and racemic oxiracetam; naloxone, purchased from Chongqing Yaoyou Pharmaceutical Co., Ltd.; anhydrous ethanol, purchased from Shanghai Chemical Reagent Co., Ltd. Physiological saline is commercially available. Each solution was freshly prepared. • 2. Preparation of ethanol solution: anhydrous ethanol was diluted with saline to produce 30% ethanol solution, freshly prepared. • 3. Experimental animals: Male mice weighing 18-22 grams were provided by the special committee, Sichuan experimental animal farms (License: SCXK (Chuan) 2008-14). Animal experiments facilities continue to maintain barriers environmental standards. Control of key environmental indicators: the temperature of 20.0-25.0° C., relative humidity of 40-70%. 10-20 air changes/hour, lighting:dark=14 h:10 h. Animals were housed in standard boxes, each box had 5. (B) Experimental Methods
1. Preparation of alcoholic coma mouse model: With reference to the literature (M. E L Yacoubi, C. Ledent, M. parmentier, et al Caffeine reduces hypnotic effects of alcohol through adenosine A2A receptor blockade [J] Neuropharmacology, 2003, 45(7):977-985) modeled the process of 30% ethanol solution intraperitoneally (0.2 ml/10 g).
2. Method of determination of states of consciousness of mouse discriminating: According to the literature (Jeffrey R. Stephens, Rene H. Levy. Effects of valproate and citrulline on ammonium-Induced encephalopathy [J] Epilepsia, 1994,35 (1):164-171) performed the determination of states of consciousness: level 1, reduced activity in the cage; level 2, limb ataxia associated with reduced activity; level 3, scrolled when placed in the bottom of the back of the cage (righting reflex), but could not stand; level 4, back into the cage end position cannot be corrected, but the damage manifested as physical stimulation retraction; level 5, righting reflex (Loss of Righting Reflex, LORR) and the lack of response to noxious stimuli. Level 4, 5, considered animal in a coma.
The 150 animals were randomly divided into 10 groups: model control group (saline only); […]; dextral Oxiracetam up two groups, respectively: 90,180 mg/kg group; L oxiracetam set up three groups, namely: 30 mg/kg, 90 mg/kg and 180 mg/kg group; naloxone group, a dose of 1.5mg/kg. After each group were successfully prepared animal models, random tables grouped righting reflex one minute after tail vein injection. The mice were observed duration of righting reflex, that sleep time. Statistical results: the experimental data with x±sd, said comparison between the groups were analyzed using ANOVA and q test, test level: α=0.05.

[3] = in vivo; design: species or system Beagle dogs; conditions: dog, 50 mg/kg
Method: The study of comparing the pharmacokinetic of the racemic oxiracetam and L-oxiracetam determines the dose orally and intravenously to Beagle dogs for 50 mg/kg.
Take six adult Beagle dogs, the numbers of female and male were equal, which were weighted 10.0±0.5 kg and randomly divided into three groups, and each group were two with same numbers of the male and female. Latin square crossover method was used (see Table 1). Beagle dogs were administered orally and intravenously at a dose of 50 mg/kg. L-oxiracetam samples with 99.3% (optically pure) of purity were used. Each route of administration was performed every week. Animals orally administered were fasted for 12 hours […] continued fasting three hours after administration. Blank blood was taken prior to administration. Blood sample were taken 1 mL from forelimbs vein into heparinized tubes in 0.083, 0.25, 0.5, 0.75, 1.0, 1.5, 2.0, 4.0, 6.0, 8.0, 12.0 and 24.0 hours after oral administration, or taken in 0.083, 0.25, 0.5, 0.75, 1.0, 1.5, 2.0, 4.0, 6.0, 8.0, 12.0 and 24.0 hours after intravenous administration, and centrifuged to obtain plasma. The concentrations of drugs in plasma were determined by LC-MS-MS method. The results in the table below 2-7.

[4] = system: traumatic brain coma in rats; test: Traumatic brain coma in rats (Feeney method), coma level score; type: in vivo, SD rats; conditions: for Remark: animals that survived: 10 animals, 8 h observation, cell wraps: All / survived
[5] = compared with the racemate; cited from earlier work
[6] = both sexes, Beagle, iv, Drug concentrations in plasma
[7] = traumatic brain coma, 1 mg/kg, levels 1-6 (5 and 6 = coma)
[8] = alcohol-induced coma, 30 mg/kg tail vein injection
[9] = alcohol-induced coma, 180 mg/kg tail vein injection
[10] = traumatic brain coma, 125 mg/kg, levels 1-6 (5 and 6 = coma)

Structure (SMILES): NC(=O)CN1CC(O)CC1=O (racemic) [oxiracetam]
- awaking effect on ketamine-induced coma (in words) ([1]; dose range 150-360 mg/kg): also had such effect
- Time of Sleep (The duration of reflex action, min) ([1]; 60 mg/kg): 21.3 ± 6.7 min
- Time of Sleep (The duration of reflex action, min) ([1]; 150 mg/kg): 15.3 ± 6.4 min
- Time of Sleep (The duration of reflex action, min) ([1]; 360 mg/kg): 14.2 ± 6.2 min
- Time of Sleep (The duration of reflex action, min) ([2]; alcohol-induced coma, 60 mg/kg tail vein injection): 96.8 ± 12.7 min
- Time of Sleep (The duration of reflex action, min) ([2]; alcohol-induced coma, 150 mg/kg tail vein injection): 86.1 ± 9.4 min
- Time of Sleep (The duration of reflex action, min) ([2]; alcohol-induced coma, 360 mg/kg tail vein injection): 65.1 ± 10.2 min
- wake-promoting effect on alcoholism-induced coma (in words) [2]: certain awaking effect
- concentration at 1 h [3, 6]: 30800 ng/mL
- concentration at 1.5 h [3, 6]: 38800 ng/mL
- concentration at 2 h [3, 6]: 35300 ng/mL
- concentration at 4 h [3, 6]: 13000 ng/mL
- concentration at 6 h [3, 6]: 9350 ng/mL

Structure (SMILES): C=CCN1CC[C@]23c4c5ccc(O)c4O[C@H]2C(=O)CC[C@@]3(O)[C@H]1C5 [Naloxone]
- wake-promoting effect on traumatic coma (in words) ([4]; 1 mg/kg, positive drug): good wake-promoting effect
- Remark: animals that survived ([4]; traumatic brain coma, 1 mg/kg): All
- coma level score, post-traumatic observation point 1 h [4, 7]: 4.4 ± 0.96
- coma level score, post-traumatic observation point 2 h [4, 7]: 3.6 ± 0.84
- coma level score, post-traumatic observation point 8 h [4, 7]: 1.9 ± 0.88
- Time of Sleep (The duration of reflex action, min) ([1]; 1.5 mg/kg): 13.5 ± 4.2 min
- awaking effect on ketamine-induced coma (in words) ([1]; positive reference drug 1.5 mg/kg): significant effect
- Time of Sleep (The duration of reflex action, min) ([2]; alcohol-induced coma, 1.5 mg/kg tail vein injection): 60.5 ± 7.8 min

Structure (SMILES): NC(=O)CN1C[C@H](O)CC1=O [D-Oxiracetam]
- awaking effect on ketamine-induced coma (in words) ([1]; dose range 30-180 mg/kg): no effect
- Time of Sleep (The duration of reflex action, min) ([1]; 30 mg/kg): 25.6 ± 8.9 min
- Time of Sleep (The duration of reflex action, min) ([1]; 180 mg/kg): 22.8 ± 6.5 min
- Time of Sleep (The duration of reflex action, min) [2, 8]: 105.3 ± 15.8 min
- Time of Sleep (The duration of reflex action, min) [2, 9]: 98.8 ± 11.6 min
- wake-promoting effect on alcoholism-induced coma (in words) [2]: basically had no effect

Structure (SMILES): NC(=O)CN1C[C@@H](O)CC1=O [L-oxiracetam, (S)-4-hydroxy-2-oxo-pyrrolidineacetamide]
- wake-promoting effect on traumatic coma (in words) ([4]; 125 mg/kg, after 1 hour): significant improvement in awareness
- Remark: animals that survived ([4]; traumatic brain coma, 125 mg/kg, 125 mg/kg): All
- Remark: animals that survived ([4]; traumatic brain coma, 125 mg/kg, listed as left oxiracetam, 125 mg/kg): no occurrence of an animal died
- coma level score, post-traumatic observation point 1 h [4, 10]: 5.1 ± 0.88
- coma level score, post-traumatic observation point 2 h [4, 10]: 3.8 ± 0.78
- coma level score, post-traumatic observation point 4 h [4, 10]: 3.0 ± 0.82
- coma level score, post-traumatic observation point 8 h [4, 10]: 2.0 ± 0.67
- coma level score, post-traumatic observation point 1 h ([4]; traumatic brain coma, 125 mg/kg, levels 1-6 (5 and 6 = coma), listed as left oxiracetam): 5.1
- awaking effect on ketamine-induced coma (in words) ([1]; dose range 30-180 mg/kg): significant awaking effect
- Time of Sleep (The duration of reflex action, min) ([1]; 30 mg/kg): 19.6 ± 5.6 min
- Time of Sleep (The duration of reflex action, min) ([1]; 75 mg/kg): 15.2 ± 4.9 min
- Time of Sleep (The duration of reflex action, min) ([1]; 180 mg/kg): 13.8 ± 3.8 min
- effect of awaking relative to racemic oxiracetam ([2]; alcohol-induced coma): ~2 times
- Time of Sleep (The duration of reflex action, min) [2, 8]: 85.8 ± 10.6 min
- Time of Sleep (The duration of reflex action, min) ([2]; alcohol-induced coma, 75 mg/kg tail vein injection): 63.5 ± 9.8 min
- Time of Sleep (The duration of reflex action, min) [2, 9]: 48.5 ± 9.1 min
- wake-promoting effect on alcoholism-induced coma (in words) [2]: obvious
- solubility (in words) [5]: significantly better than the racemate
- absolute bioavailability estimated through AUC0−∞ [3]: 65.76±9.12%
- AUC(0-inf) ([3]; iv): 243 ± 37.8 µg·h/mL
